{
  "source": "patent US20250325552A1",
  "about": "“SUBSTITUTED THIADIAZOLYL DERIVATIVES AS DNA POLYMERASE THETA INHIBITORS” (IDEAYA Biosciences, Inc., priority 2020, published 2025)",
  "data": [
    {"target": "Polθ theta (1-899) (hPolQ) (Homo sapiens (Human), UniProt O75417)", "sequence (O75417 1-899)": "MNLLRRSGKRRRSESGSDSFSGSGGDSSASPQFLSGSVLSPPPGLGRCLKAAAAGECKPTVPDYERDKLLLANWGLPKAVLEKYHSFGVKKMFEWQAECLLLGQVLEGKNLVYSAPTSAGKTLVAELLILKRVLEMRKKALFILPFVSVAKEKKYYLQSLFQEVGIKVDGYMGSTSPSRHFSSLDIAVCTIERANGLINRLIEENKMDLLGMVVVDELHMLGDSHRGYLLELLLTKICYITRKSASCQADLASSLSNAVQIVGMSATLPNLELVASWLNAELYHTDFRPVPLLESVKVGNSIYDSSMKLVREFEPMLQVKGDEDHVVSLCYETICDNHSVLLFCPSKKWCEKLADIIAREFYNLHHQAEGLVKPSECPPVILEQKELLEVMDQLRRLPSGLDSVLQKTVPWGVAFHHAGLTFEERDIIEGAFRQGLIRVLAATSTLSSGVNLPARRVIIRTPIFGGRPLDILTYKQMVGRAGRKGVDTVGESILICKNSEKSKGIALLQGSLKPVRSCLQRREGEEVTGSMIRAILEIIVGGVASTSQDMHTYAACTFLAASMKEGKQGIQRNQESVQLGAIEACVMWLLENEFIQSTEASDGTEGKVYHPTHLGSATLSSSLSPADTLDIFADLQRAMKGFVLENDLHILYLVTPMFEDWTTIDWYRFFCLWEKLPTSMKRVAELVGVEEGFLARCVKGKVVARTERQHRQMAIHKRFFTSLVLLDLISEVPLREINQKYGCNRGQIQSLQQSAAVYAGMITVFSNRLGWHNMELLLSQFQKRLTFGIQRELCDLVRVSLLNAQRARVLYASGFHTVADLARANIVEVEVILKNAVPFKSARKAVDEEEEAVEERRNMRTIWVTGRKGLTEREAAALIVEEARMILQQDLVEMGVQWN", "assay": "Biological Assay 1: Polθ ATPase activity, NADH oxidation-coupled enzymatic assay (10 nM enzyme, 30 min)", "type": "biochemical", "conditions": "Polθ (1-899) 10 nM, 100 μM ATP, 300 nM dT50 ssDNA; Examples 1 to 268; read-out: ATPase NADH coupling:Standard Screening:hPolQ IC50", "outline": "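ATP turnover was coupled to NADH oxidation and followed at 340 nm every minute for 30 min. Enzyme (residues 1-899, 10 nM) sat with compound for 15 min at room temperature before an equal-volume addition of 100 μM ATP plus 300 nM dT50 ssDNA. Progress-curve slopes from 10-point dilutions were fitted by a four-parameter model.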", "units": {"IC50": "nM"}, "values": [
      {"smiles": "COc1cnc(C)cc1-c1cc(C)ncc1C(=O)Nc1nnc(OC[C@H]2CC[C@@H](O)CC2)s1", "note": "[Example 127, N-(5-(((1s,4s)-4-hydroxycyclohexyl)methoxy)-1,3,4-thiadiazol-2-yl)-5′-methoxy-2′,6-dimethyl-[4,4′-bipyridine]-3-carboxamide]", "IC50": "≤ 200"},
      {"smiles": "COc1cnc(Cl)cc1-c1cc(C)ncc1C(=O)Nc1nnc(OC[C@H]2CC[C@@H](O)CC2)s1", "note": "[Example 128, 2′-chloro-N-(5-(((1s,4s)-4-hydroxycyclohexyl)methoxy)-1,3,4-thiadiazol-2-yl)-5′-methoxy-6-methyl-[4,4′-bipyridine]-3-carboxamide]", "IC50": "≤ 200"},
      {"smiles": "COc1cnc(Cl)cc1-c1cc(C)ncc1C(=O)Nc1nnc(OC[C@H]2CC[C@H](O)CC2)s1", "note": "[Example 129, 2′-chloro-N-(5-(((1r,4r)-4-hydroxycyclohexyl)methoxy)-1,3,4-thiadiazol-2-yl)-5′-methoxy-6-methyl-[4,4′-bipyridine]-3-carboxamide]", "IC50": "≤ 200"},
      {"smiles": "COc1cccc(F)c1-c1cc(C)ncc1C(=O)Nc1nnc(OCc2ccc(C3CCO3)cn2)s1", "note": "(centres unmarked) [Example 130, 4-(2-fluoro-6-methoxyphenyl)-6-methyl-N-(5-((5-(oxetan-2-yl)pyridin-2-yl)methoxy)-1,3,4-thiadiazol-2-yl)nicotinamide]", "IC50": "≤ 200"},
      {"smiles": "COc1cnc(Cl)cc1-c1cc(C)ncc1C(=O)Nc1nnc(OCC2(C)CCOC2)s1", "note": "(centres unmarked) [Example 131, 2′-chloro-5′-methoxy-6-methyl-N-(5-((3-methyloxolan-3-yl)methoxy)-1,3,4-thiadiazol-2-yl)-(4,4′-bipyridine)-3-carboxamide]", "IC50": "≤ 200"},
      {"smiles": "COc1cccc(F)c1-c1cc(C)ncc1C(=O)Nc1nnc(OCC23CC(CO)(C2)C3)s1", "note": "[Example 132, 4-(2-fluoro-6-methoxyphenyl)-N-(5-((3-(hydroxymethyl)bicyclo(1.1.1)pentan-1-yl)methoxy)-1,3,4-thiadiazol-2-yl)-6-methylpyridine-3-carboxamide]", "IC50": "≤ 200"},
      {"smiles": "COc1ccc(Cl)cc1-c1cc(C)ncc1C(=O)Nc1nnc(OCc2cnc(CO)cn2)s1", "note": "[Example 133, 4-(5-chloro-2-methoxyphenyl)-N-(5-((5-(hydroxymethyl)pyrazin-2-yl)methoxy)-1,3,4-thiadiazol-2-yl)-6-methylpyridine-3-carboxamide]", "IC50": "≤ 200"},
      {"smiles": "COc1ccc(C)cc1-c1cc(C)ncc1C(=O)Nc1nnc(OCc2cnc(CO)cn2)s1", "note": "[Example 134, N-(5-((5-(hydroxymethyl)pyrazin-2-yl)methoxy)-1,3,4-thiadiazol-2-yl)-4-(2-methoxy-5-methylphenyl)-6-methylpyridine-3-carboxamide]", "IC50": "≤ 200"},
      {"smiles": "COc1cccc(F)c1-c1cc(C)ncc1C(=O)Nc1nnc(OCC2CCCn3nccc32)s1", "note": "(centres unmarked) [Example 135, 4-(2-fluoro-6-methoxyphenyl)-6-methyl-N-(5-(4H,5H,6H,7H-pyrazolo(1,5-a)pyridin-4-ylmethoxy)-1,3,4-thiadiazol-2-yl)pyridine-3-carboxamide]", "IC50": "≤ 200"},
      {"smiles": "COc1cnc(Cl)cc1-c1cc(C)ncc1C(=O)Nc1nnc(OCC23CCC(O)(CC2)CC3)s1", "note": "[Example 136, 2′-chloro-N-(5-((4-hydroxybicyclo(2.2.2)octan-1-yl)methoxy)-1,3,4-thiadiazol-2-yl)-5′-methoxy-6-methyl-(4,4′-bipyridine)-3-carboxamide]", "IC50": "≤ 200"},
      {"smiles": "COc1cnc(Cl)cc1-c1cc(C)ncc1C(=O)Nc1nnc(OC[C@H]2CC[C@H](OC)CC2)s1", "note": "[Example 137, 2′-chloro-5′-methoxy-N-(5-(((1r,4r)-4-methoxycyclohexyl)methoxy)-1,3,4-thiadiazol-2-yl)-6-methyl-[4,4′-bipyridine]-3-carboxamide]", "IC50": "≤ 200"},
      {"smiles": "COc1cnc(Cl)cc1-c1cc(C)ncc1C(=O)Nc1nnc(OCC2CC3(CC(O)C3)C2)s1", "note": "(centres unmarked) [Example 138, 2′-chloro-N-(5-((6-hydroxyspiro[3.3]heptan-2-yl)methoxy)-1,3,4-thiadiazol-2-yl)-5′-methoxy-6-methyl-[4,4′-bipyridine]-3-carboxamide]", "IC50": "≤ 200"},
      {"smiles": "COc1cnc(C)cc1-c1cc(C)ncc1C(=O)Nc1nnc(OCC2CC3(CC(O)C3)C2)s1", "note": "(centres unmarked) [Example 139, N-(5-((6-hydroxyspiro[3.3]heptan-2-yl)methoxy)-1,3,4-thiadiazol-2-yl)-5′-methoxy-2′,6-dimethyl-[4,4′-bipyridine]-3-carboxamide]", "IC50": "≤ 200"},
      {"smiles": "COc1cccc(F)c1-c1cc(C)ncc1C(=O)Nc1nnc(OCc2ccc(C3(C)COC3)cn2)s1", "note": "[Example 140, 4-(2-fluoro-6-methoxyphenyl)-6-methyl-N-(5-((5-(3-methyloxetan-3-yl)pyridin-2-yl)methoxy)-1,3,4-thiadiazol-2-yl)nicotinamide]", "IC50": "≤ 200"},
      {"smiles": "COc1cccc(F)c1-c1cc(C)ncc1C(=O)Nc1nnc(OCC2CC3(CC(O)C3)C2)s1", "note": "(centres unmarked) [Example 141, 4-(2-fluoro-6-methoxyphenyl)-N-(5-((6-hydroxyspiro(3.3)heptan-2-yl)methoxy)-1,3,4-thiadiazol-2-yl)-6-methylpyridine-3-carboxamide]", "IC50": "≤ 200"},
      {"smiles": "COc1ccc(Cl)cc1-c1cnncc1C(=O)Nc1nnc(OCC23CCC(F)(CC2)CC3)s1", "note": "[Example 142, 5-(5-chloro-2-methoxyphenyl)-N-(5-((4-fluorobicyclo(2.2.2)octan-1-yl)methoxy)-1,3,4-thiadiazol-2-yl)pyridazine-4-carboxamide]", "IC50": "≤ 200"},
      {"smiles": "COc1cnc(Cl)cc1-c1cc(C)ncc1C(=O)Nc1nnc(OCC23CC(C(C)(C)O)(C2)C3)s1", "note": "[Example 143, 2′-chloro-N-(5-((3-(2-hydroxypropan-2-yl)bicyclo(1.1.1)pentan-1-yl)methoxy)-1,3,4-thiadiazol-2-yl)-5′-methoxy-6-methyl-(4,4′-bipyridine)-3-carboxamide]", "IC50": "≤ 200"},
      {"smiles": "CN=[S@](C)(=O)c1ccc(COc2nnc(NC(=O)c3cnc(C)cc3-c3cc(Cl)ccc3OC)s2)nc1", "note": "[Example 144, (R)-4-(5-chloro-2-methoxyphenyl)-N-(5-((5-(N,S-dimethylsulfonimidoyl)pyridin-2-yl)methoxy)-1,3,4-thiadiazol-2-yl)-6-methylnicotinamide]", "IC50": "≤ 200"},
      {"smiles": "COc1cnc(Cl)cc1-c1cc(C)ncc1C(=O)Nc1nnc(OCc2cnc(CO)cn2)s1", "note": "[Example 145, 2′-chloro-N-(5-((5-(hydroxymethyl)pyrazin-2-yl)methoxy)-1,3,4-thiadiazol-2-yl)-5′-methoxy-6-methyl-(4,4′-bipyridine)-3-carboxamide]", "IC50": "≤ 200"},
      {"smiles": "COc1cnc(C)cc1-c1cc(C)ncc1C(=O)Nc1nnc(OCc2cnc(CO)cn2)s1", "note": "[Example 146, N-(5-((5-(hydroxymethyl)pyrazin-2-yl)methoxy)-1,3,4-thiadiazol-2-yl)-5′-methoxy-2′,6-dimethyl-[4,4′-bipyridine]-3-carboxamide]", "IC50": "≤ 200"},
      {"smiles": "COc1ccc(Cl)cc1-c1cc(C)ncc1C(=O)Nc1nnc(OCc2ccc([S@](C)(=N)=O)cn2)s1", "note": "[Example 147, (R)-4-(5-chloro-2-methoxyphenyl)-6-methyl-N-(5-((5-(S-methylsulfonimidoyl)pyridin-2-yl)methoxy)-1,3,4-thiadiazol-2-yl)nicotinamide]", "IC50": "≤ 200"},
      {"smiles": "COc1ccc(Cl)cc1-c1cc(C)ncc1C(=O)Nc1nnc(OCc2ccc([S@@](C)(=N)=O)cn2)s1", "note": "[Example 148, (S)-4-(5-chloro-2-methoxyphenyl)-6-methyl-N-(5-((5-(S-methylsulfonimidoyl)pyridin-2-yl)methoxy)-1,3,4-thiadiazol-2-yl)nicotinamide]", "IC50": "≤ 200"},
      {"smiles": "COc1cccc(F)c1-c1cc(C)ncc1C(=O)Nc1nnc(OCc2ccc([S@](C)(=N)=O)cn2)s1", "note": "[Example 149, 4-(2-fluoro-6-methoxyphenyl)-6-methyl-N-(5-((5-((R)—S-methylsulfonimidoyl)pyridin-2-yl)methoxy)-1,3,4-thiadiazol-2-yl)nicotinamide]", "IC50": "≤ 200"},
      {"smiles": "COc1cccc(F)c1-c1cc(C)ncc1C(=O)Nc1nnc(OCc2ccc([S@@](C)(=N)=O)cn2)s1", "note": "[Example 150, 4-(2-fluoro-6-methoxyphenyl)-6-methyl-N-(5-((5-((S)—S-methylsulfonimidoyl)pyridin-2-yl)methoxy)-1,3,4-thiadiazol-2-yl)nicotinamide]", "IC50": "≤ 200"},
      {"smiles": "COc1cnc(Cl)cc1-c1cc(C)ncc1C(=O)Nc1nnc(OCc2ccc3c(n2)CCOC3)s1", "note": "[Example 151, 2′-chloro-5′-methoxy-6-methyl-N-(5-(5H,7H,8H-pyrano(4,3-b)pyridin-2-ylmethoxy)-1,3,4-thiadiazol-2-yl)-(4,4′-bipyridine)-3-carboxamide]", "IC50": "≤ 200"},
      {"smiles": "CN=[S@@](C)(=O)c1ccc(COc2nnc(NC(=O)c3cnc(C)cc3-c3cc(Cl)ccc3OC)s2)nc1", "note": "[Example 152, (S)-4-(5-chloro-2-methoxyphenyl)-N-(5-((5-(N,S-dimethylsulfonimidoyl)pyridin-2-yl)methoxy)-1,3,4-thiadiazol-2-yl)-6-methylnicotinamide]", "IC50": "≤ 200"},
      {"smiles": "COc1cnc(Cl)cc1-c1cc(C)ncc1C(=O)Nc1nnc(OCC2CCC(F)(F)CC2)s1", "note": "[Example 153, 2′-chloro-N-(5-((4,4-difluorocyclohexyl)methoxy)-1,3,4-thiadiazol-2-yl)-5′-methoxy-6-methyl-(4,4′-bipyridine)-3-carboxamide]", "IC50": "≤ 200"},
      {"smiles": "CN=[S@](C)(=O)c1ccc(COc2nnc(NC(=O)c3cnc(C)cc3-c3c(F)cccc3OC)s2)cc1", "note": "[Example 154, N-(5-((4-((R)—N,S-dimethylsulfonimidoyl)benzyl)oxy)-1,3,4-thiadiazol-2-yl)-4-(2-fluoro-6-methoxyphenyl)-6-methylnicotinamide]", "IC50": "≤ 200"},
      {"smiles": "CN=[S@@](C)(=O)c1ccc(COc2nnc(NC(=O)c3cnc(C)cc3-c3c(F)cccc3OC)s2)cc1", "note": "[Example 155, N-(5-((4-((S)—N,S-dimethylsulfonimidoyl)benzyl)oxy)-1,3,4-thiadiazol-2-yl)-4-(2-fluoro-6-methoxyphenyl)-6-methylnicotinamide]", "IC50": "≤ 200"}
    ]}
  ]
}
